In US11013780B2, “Methods of treating female infertility” (Myovant Sciences GmbH, priority 2016, dated 2021):
Read-outs that look alike come from different tables or passages of the source. Where a SMILES comes first, the peptide text is derived from it. [ ]: non-standard residue; d: D form. Arg(Me) = CNC(=N)NCCC[C@H](N)C(=O)O; Hyp = O=C(O)[C@@H]1C[C@@H](O)CN1; azaGly = NNC(=O)O

What was measured:
[1] = Pharmacokinetics in rats after SC and IV administration; settings: rat, in vivo, rats; for AUC(0-t): read-out: AUC(0-24); for level at 5 min: read-out: C5min; for Cmax: read-out: Cmax
Experimental: The PK of API-MA was studied in rats after SC and IV administration.
The PK linearity of API-MA was also investigated in rats after IV administration. The plasma C5min and AUC(0-24) values increased dose-proportionally. […] The elimination T1/2 values were 0.4 hours at 0.01 and 0.1 mg/kg and 0.5 hours at 1 mg/kg. These findings indicate that the PK of API-FB was linear in rats after single IV administration over the dose range of 0.01 to 1 mg/kg. The greater than dose-proportional increase in the first-pass kinetics with SC administration would indicate nonlinear PK in rats after SC administration.

[2] = Pharmacokinetics in dogs after SC and IV administration; settings: dog, in vivo, dogs; for AUC(0-t): read-out: AUC(0-24); for Cmax: read-out: Cmax; for bioavailability: read-out: BA (bioavailability)
Text: The PK of API-MA was studied in dogs after SC and IV administration.

[3] = Pharmacokinetics in monkeys after SC and IV administration; settings: monkey, in vivo, monkeys; for AUC(0-t): read-out: AUC(0-24); for bioavailability: read-out: BA (bioavailability); for Cmax: read-out: Cmax
Text: The PK of API-MA was studied in monkeys after SC and IV administration.

[4] = Multiple-dose PK, 2-hour SC infusion once daily for 14 days, Japanese prostate cancer patients; format: in vivo, human; settings: for half-life / Cmax / Tmax / AUC / Vd/F / AUC(0-inf) / MRT: male, human, in vivo; for AUC: read-out: AUC (0-tau); for Vd/F: read-out: Vz/F
Experimental: It was an open-label, ascending dose study of API-MA administered via 2-hour SC infusion once daily for 14 days that was expected to suppress testosterone in Japanese hormone-naïve prostate cancer patients. Six patients received API-MA at doses of 0.5 mg (3 patients) and 1.0 mg (3 patients) a day for 14 days.
To measure plasma concentrations of API-MA, blood specimens were collected at the following times: Day 1 (predose and 2, 4, 6, 10 hours postdose); days 2, 4, 6, 8, 10, and 12 (predose); day 14 (predose and 2, 4, 6, 10, 24, 48 hours postdose); day 21; and day 28. To measure urinary excretion of API-MA, urine specimens were collected at the following times: Day 1 (predose and 0 to 4, 4 to 8, 8 to 12, 12 to 24 hours postdose) and day 14 (0 to 4, 4 to 8, 8 to 12, 12 to 24 hours postdose).

[5] = IV 1 mg/kg, read-out: T½ γ (elimination) (converted)
[6] = SC 0.1 to 10 mg/kg, read-out: Tmax, range over the tested SC doses
[7] = bolus IV 1 mg/kg, read-out: Cmax (C5 min)
[8] = Japanese prostate cancer patients, 2-hour SC infusion 0.5 mg/day, Day 1, mean
[9] = Japanese prostate cancer patients, 2-hour SC infusion 0.5 mg/day, Day 14, mean
[10] = Japanese prostate cancer patients, 2-hour SC infusion 1.0 mg/day, Day 1, mean
[11] = Japanese prostate cancer patients, 2-hour SC infusion 1.0 mg/day, Day 14, mean
[12] = sc, 0.5 mg/day, Japanese prostate cancer patients, 2-hour SC infusion 0.5 mg/day, Day 1, mean
[13] = sc, 0.5 mg/day, Japanese prostate cancer patients, 2-hour SC infusion 0.5 mg/day, Day 14, mean
[14] = sc, 1 mg/day, Japanese prostate cancer patients, 2-hour SC infusion 1.0 mg/day, Day 1, mean
[15] = sc, 1 mg/day, Japanese prostate cancer patients, 2-hour SC infusion 1.0 mg/day, Day 14, mean

Question: For `CC(=O)O.CNC(=N)NCCC[C@H](NC(=O)[C@H](CC(C)C)NC(=O)NNC(=O)[C@H](Cc1ccccc1)NC(=O)[C@@H](NC(=O)[C@H](CC(N)=O)NC(=O)[C@@H]1C[C@@H](O)CN1C(=O)[C@@H](Cc1ccc(O)cc1)NC(C)=O)[C@@H](C)O)C(=O)N[C@@H](Cc1c[nH]c2ccccc12)C(N)=O` [API-MA, 2-(N-Acetyl-D-tyrosyl-trans-4-hydroxy-L-prolyl-Lasparaginyl-L-threonyl-L-phenylalanyl)-hydrazinocarbonyl-L-leucyl-Nω-methyl-L-arginyl-L-tryptophanamide monoacetate] (Ac-[dY][Hyp]NTF[azaGly]L[Arg(Me)]W-NH2), which AUC(0-t) ([1]; iv, 0.01 mg/kg, IV 0.01 mg/kg, PK linearity study) is on record?
Answer: 14 ng·h/mL

Question: And the AUC(0-t) ([1]; iv, 0.1 mg/kg, IV 0.1 mg/kg, PK linearity study)?
Answer: 140 ng·h/mL

Question: What about the AUC(0-t) ([1]; iv, 1 mg/kg, IV 1 mg/kg, PK linearity study) of the same molecule?
Answer: 1390 ng·h/mL

Question: What about the AUC(0-t) ([1]; iv, 1 mg/kg, IV 1 mg/kg) of the same molecule?
Answer: 1460 ng·h/mL

Question: What about the AUC(0-t) ([1]; sc, 1 mg/kg, SC 1 mg/kg, mean ± SD (n = 5)) of the same molecule?
Answer: 804 ng·h/mL

Question: What about the AUC(0-t) ([1]; sc, 10 mg/kg, SC 10 mg/kg, mean ± SD (n = 5)) of the same molecule?
Answer: 309 ng·h/mL

Question: What about the level at 5 min ([1]; IV 0.01 mg/kg, PK linearity study) of the same molecule?
Answer: 24.1 ng/mL

Question: What about the half-life ([1]; IV 0.01 mg/kg, PK linearity study, read-out: Elimination T1/2 (converted)) of the same molecule?
Answer: 24 min

Question: And the level at 5 min ([1]; IV 0.1 mg/kg, PK linearity study)?
Answer: 250 ng/mL

Question: What about the half-life ([1]; IV 0.1 mg/kg, PK linearity study, read-out: Elimination T1/2 (converted)) of the same molecule?
Answer: 24 min

Question: And the level at 5 min ([1]; IV 1 mg/kg, PK linearity study)?
Answer: 2580 ng/mL

Question: What about the Cmax at 5 min ([1]; IV 1 mg/kg, plasma concentration at 5 minutes, read-out: Cmax (C5 min)) of the same molecule?
Answer: 2670 ng/mL

Question: What about the half-life ([1]; IV 1 mg/kg, read-out: T1/2 alpha phase (converted)) of the same molecule?
Answer: 30 min

Question: What about the Cmax ([1]; SC 1 mg/kg, mean ± SD (n = 5)) of the same molecule?
Answer: 381 ng/mL

Question: What about the bioavailability ([1]; SC 1 mg/kg, read-out: BA (bioavailability)) of the same molecule?
Answer: 55.3%

Question: What about the Cmax ([1]; SC 10 mg/kg, mean ± SD (n = 5)) of the same molecule?
Answer: 285 ng/mL

Question: And the Tmax ([1]; SC, read-out: Tmax, range over all tested SC doses)?
Answer: 18 to 54 min

Question: What about the AUC(0-t) ([2]; IV 1 mg/kg) of the same molecule?
Answer: 3090 ng·h/mL

Question: And the half-life [2, 5]?
Answer: 180 min

Question: What about the Cmax ([2]; SC 0.1 mg/kg, mean ± SD (n = 4)) of the same molecule?
Answer: 86.6 ng/mL

Question: And the AUC(0-t) ([2]; SC 0.1 mg/kg)?
Answer: 252 ng·h/mL

Question: What about the bioavailability ([2]; SC 0.1 mg/kg) of the same molecule?
Answer: 81.5%

Question: What about the AUC(0-t) ([2]; SC 1 mg/kg) of the same molecule?
Answer: 2600 ng·h/mL

Question: And the bioavailability ([2]; SC 1 mg/kg)?
Answer: 84%

Question: And the Cmax ([2]; SC 1 mg/kg)?
Answer: 883 ng/mL

Question: What about the AUC(0-t) ([2]; SC 10 mg/kg) of the same molecule?
Answer: 28600 ng·h/mL

Question: And the bioavailability ([2]; SC 10 mg/kg)?
Answer: 92.7%

Question: And the Cmax ([2]; SC 10 mg/kg)?
Answer: 8840 ng/mL

Question: And the Tmax [2, 6]?
Answer: 48 to 60 min

Question: And the Cmax at 5 min [2, 7]?
Answer: 4250 ng/mL

Question: And the AUC(0-t) ([3]; IV 1 mg/kg)?
Answer: 3160 ng·h/mL

Question: And the half-life [3, 5]?
Answer: 192 min

Question: What about the AUC(0-t) ([3]; SC 0.1 mg/kg) of the same molecule?
Answer: 295 ng·h/mL

Question: And the bioavailability ([3]; SC 0.1 mg/kg)?
Answer: 94.9%

Question: What about the Cmax ([3]; SC 0.1 mg/kg) of the same molecule?
Answer: 123 ng/mL

Question: What about the AUC(0-t) ([3]; SC 1 mg/kg) of the same molecule?
Answer: 2790 ng·h/mL

Question: And the bioavailability ([3]; SC 1 mg/kg)?
Answer: 90.1%

Question: What about the Cmax ([3]; SC 1 mg/kg) of the same molecule?
Answer: 1320 ng/mL

Question: And the AUC(0-t) ([3]; SC 10 mg/kg)?
Answer: 31600 ng·h/mL

Question: What about the bioavailability ([3]; SC 10 mg/kg) of the same molecule?
Answer: 102%

Question: And the Cmax ([3]; SC 10 mg/kg)?
Answer: 12100 ng/mL

Question: What about the Tmax [3, 6] of the same molecule?
Answer: 18 to 24 min

Question: And the Cmax at 5 min [3, 7]?
Answer: 5030 ng/mL

Question: What about the half-life ([3]; multi-exponential decline after reaching Cmax, read-out: Mean terminal elimination T1/2 (converted)) of the same molecule?
Answer: ~156 min

Question: And the CL/F [4, 8]?
Answer: 13.4 L/h

Question: What about the λz [4, 8] of the same molecule?
Answer: 0.200 h⁻¹

Question: What about the CL/F [4, 9] of the same molecule?
Answer: 12.6 L/h

Question: And the λz [4, 9]?
Answer: 0.198 h⁻¹

Question: And the CL/F [4, 10]?
Answer: 13.6 L/h

Question: What about the λz [4, 10] of the same molecule?
Answer: 0.221 h⁻¹

Question: And the CL/F [4, 11]?
Answer: 13.4 L/h

Question: And the λz [4, 11]?
Answer: 0.205 h⁻¹

Question: And the half-life ([4]; days 1 and 14, both doses (0.5 and 1.0 mg/day), read-out: Mean T1/2)?
Answer: 180 to 240 min

Question: What about the Cmax [4, 12] of the same molecule?
Answer: 8.12 ng/mL

Question: What about the Tmax [4, 12] of the same molecule?
Answer: 2.11 h

Question: And the AUC [4, 12]?
Answer: 36.5 ng·h/mL

Question: What about the half-life ([4]; sc, 0.5 mg/day, Japanese prostate cancer patients, 2-hour SC infusion 0.5 mg/day, Day 1, mean, read-out: T1/2 (converted)) of the same molecule?
Answer: 209 min

Question: And the Vd/F [4, 12]?
Answer: 66.9 L

Question: And the Cmax [4, 13]?
Answer: 8.13 ng/mL

Question: And the Tmax [4, 13]?
Answer: 2.08 h

Question: And the AUC [4, 13]?
Answer: 39.1 ng·h/mL

Question: And the half-life ([4]; sc, 0.5 mg/day, Japanese prostate cancer patients, 2-hour SC infusion 0.5 mg/day, Day 14, mean, read-out: T1/2 (converted))?
Answer: 210 min

Question: What about the Vd/F [4, 13] of the same molecule?
Answer: 63.5 L

Question: What about the Cmax [4, 14] of the same molecule?
Answer: 16 ng/mL

Question: What about the Tmax [4, 14] of the same molecule?
Answer: 2.11 h

Question: What about the AUC [4, 14] of the same molecule?
Answer: 70.2 ng·h/mL

Question: And the half-life ([4]; sc, 1 mg/day, Japanese prostate cancer patients, 2-hour SC infusion 1.0 mg/day, Day 1, mean, read-out: T1/2 (converted))?
Answer: 189 min

Question: And the Vd/F [4, 14]?
Answer: 61.6 L

Question: And the Cmax [4, 15]?
Answer: 15.5 ng/mL

Question: And the Tmax [4, 15]?
Answer: 2.11 h

Question: What about the AUC [4, 15] of the same molecule?
Answer: 71.2 ng·h/mL

Question: And the half-life ([4]; sc, 1 mg/day, Japanese prostate cancer patients, 2-hour SC infusion 1.0 mg/day, Day 14, mean, read-out: T1/2 (converted))?
Answer: 203 min

Question: And the Vd/F [4, 15]?
Answer: 65.7 L

Question: And the AUC(0-inf) ([4]; 0.5 mg/day, Day 1, mean)?
Answer: 36.8 ng·h/mL

Question: And the MRT ([4]; 0.5 mg/day, Day 1, mean)?
Answer: 4.78 h

Question: And the AUC(0-inf) ([4]; 1.0 mg/day, Day 1, mean)?
Answer: 70.6 ng·h/mL

Question: What about the MRT ([4]; 1.0 mg/day, Day 1, mean) of the same molecule?
Answer: 4.64 h
